Reference: patent US20240300944A1, “NOVEL UREA DERIVATIVE COMPOUND AS RON INHIBITOR” (LG CHEM, LTD., priority 2021, published 2024)

Experiments:
RON = RON (Homo sapiens, UniProt Q04912); experiment: Inhibitory activity against RON, TR-FRET kinase assay; assay type: biochemical; details: RON enzyme
Description: In order to measure the inhibitory activity of each of the compounds of Examples against RON, the IC50 of each of the compounds was measured using a Time-Resolved Fluorescence Energy Transfer Chemistry (TR-FRET).
(§1) Specifically, the compound was prepared to a concentration of 1 mM with 100% DMSO and was diluted 10 times in a stepwise manner through 3-fold dilution. 2 ul of the compound diluted in a stepwise manner was added to a 96-well-plate containing 48 ul of a 1× kinase reaction buffer (50 mM HEPES (pH 7.4), 0.01% Tween-20, 5 mM DTT, 0.5 mM Na3VO4, 2 mM EGTA, 10 mM MgCl2).
The RON protein was diluted to a concentration of 49.3 nM with an RON storage buffer (50 mM Tris-HCl (pH 7.5), 150 mM NaCl, 0.5 mM EDTA, 0.02% Triton X-100), and then diluted again to a concentration of 0.4 nM with a 1× kinase reaction buffer. As a substrate cocktail, a RON-specific substrate mixture (40 uM ULight-labeled Poly GT, 100 nM ATP) at a concentration 2 times the final reaction concentration.
Thereafter, a 384-well-plate was prepared, and 2.5 ul of each of the diluted compounds of Examples was added to a corresponding well of experimental group wells, and 2.5 ul of a 4% DMSO solution was dispensed into high control wells and low control wells.
(§2) Thereafter, 2.5 μL of 0.4 nM RON was dispensed into the high control wells and the experimental group wells, and 2.5 μL of a 1× kinase reaction buffer was added to the low control wells, and the RON and the reaction buffer were centrifuged at room temperature for 40 seconds at 1000 RPM, and then incubated at room temperature for 20 to 30 minutes. Then, 5 μL of a substrate cocktail (2×) was dispensed into all wells, centrifuged at room temperature for 40 seconds at 1000 RPM, and then incubated at room temperature for 60 minutes. Thereafter, 5 μL of 30 mM EDTA was added to all wells to terminate the reaction, and then incubated again at room temperature for 5 minutes. Thereafter, 5 μL of a 4× phosphotyrosine antibody (Perkin Elmer) containing europium was added to all wells, and then incubated at room temperature for 60 minutes. After the incubation, the 384-well-plate was read with a Vison plate reader. At this time, the excitation wavelength was 340 nm, and the emission wavelength was 620 nm and 665 nm. The IC50 value of the compound of each Example was derived using the GraphPd Prism7 program.

cMET = cMET (Homo sapiens, UniProt P08581); experiment: Inhibitory activity against MET (cMET), TR-FRET kinase assay; assay type: biochemical; details: cMET enzyme
Description: In addition, in order to measure the enzyme activity inhibition for cMET, the evaluation was performed in the same manner as the enzyme activity inhibition measurement experiment for the RON.
as §1, with “7.4), 0.05% BSA, 0.005%” for “7.4), 0.01%”, “Tween-20, 1” for “Tween-20, 5”, “mM MnCl2, 20” for “mM Na3VO4, 2 mM EGTA, 10”
The cMET protein was diluted to a concentration of 263 nM with a cMET storage buffer (50 mM Tris-HCl (pH 7.5), 150 mM NaCl, 0.05% Brij35, 1 mM DTT, 10% Glycerol), and then diluted again to a concentration of 2 nM with a 1× kinase reaction buffer. As a substrate cocktail, a MET-specific substrate mixture (5 uM TK peptide, […]) at a concentration 2 times the final reaction concentration.
Thereafter, a 384-well-plate was prepared, and 2.5 μl of each of the diluted compounds of Examples was added to a corresponding well of experimental group wells, and 2.5 μl of a 4% DMSO solution was dispensed into high control wells and low control wells.
as §2, with “of 2” for “of 0.4”, “nM cMET” for “nM RON”, “of 90” for “of 30”

cMET, sequence (P08581 25-1390): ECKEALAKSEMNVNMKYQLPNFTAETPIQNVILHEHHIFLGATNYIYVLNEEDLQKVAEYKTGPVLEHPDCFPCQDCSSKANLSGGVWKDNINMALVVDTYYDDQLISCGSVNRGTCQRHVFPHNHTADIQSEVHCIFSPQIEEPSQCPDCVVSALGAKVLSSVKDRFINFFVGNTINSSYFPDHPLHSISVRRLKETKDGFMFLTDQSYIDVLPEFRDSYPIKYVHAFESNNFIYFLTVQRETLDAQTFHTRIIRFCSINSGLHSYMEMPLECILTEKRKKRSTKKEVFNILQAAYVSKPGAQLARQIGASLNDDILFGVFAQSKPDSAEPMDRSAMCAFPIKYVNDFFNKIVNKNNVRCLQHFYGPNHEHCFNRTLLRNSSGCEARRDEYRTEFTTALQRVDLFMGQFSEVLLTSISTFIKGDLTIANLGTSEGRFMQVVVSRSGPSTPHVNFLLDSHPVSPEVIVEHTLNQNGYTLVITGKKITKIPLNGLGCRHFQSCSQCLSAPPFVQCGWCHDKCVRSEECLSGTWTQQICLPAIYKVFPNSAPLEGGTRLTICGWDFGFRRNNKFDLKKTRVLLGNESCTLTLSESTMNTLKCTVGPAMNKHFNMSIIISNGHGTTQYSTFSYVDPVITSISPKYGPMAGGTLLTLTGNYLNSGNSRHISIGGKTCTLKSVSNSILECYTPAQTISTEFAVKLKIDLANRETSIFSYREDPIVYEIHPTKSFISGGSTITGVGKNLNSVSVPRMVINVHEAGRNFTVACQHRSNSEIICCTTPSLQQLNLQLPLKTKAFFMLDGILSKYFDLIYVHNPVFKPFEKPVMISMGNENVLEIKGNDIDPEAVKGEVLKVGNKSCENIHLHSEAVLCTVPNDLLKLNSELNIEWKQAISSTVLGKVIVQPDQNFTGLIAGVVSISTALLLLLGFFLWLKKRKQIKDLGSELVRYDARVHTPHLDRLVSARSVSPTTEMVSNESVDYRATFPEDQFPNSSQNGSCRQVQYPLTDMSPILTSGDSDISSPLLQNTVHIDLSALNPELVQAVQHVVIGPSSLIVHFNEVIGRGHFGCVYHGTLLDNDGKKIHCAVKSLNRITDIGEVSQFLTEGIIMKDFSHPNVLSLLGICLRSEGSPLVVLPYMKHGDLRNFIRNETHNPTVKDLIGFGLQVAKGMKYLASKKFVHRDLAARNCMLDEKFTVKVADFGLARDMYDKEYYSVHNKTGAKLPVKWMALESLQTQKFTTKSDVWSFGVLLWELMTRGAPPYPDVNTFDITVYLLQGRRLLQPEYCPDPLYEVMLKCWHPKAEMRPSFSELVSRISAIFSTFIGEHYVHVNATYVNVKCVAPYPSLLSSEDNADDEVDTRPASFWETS
RON, sequence (Q04912 25-1400, species assumed): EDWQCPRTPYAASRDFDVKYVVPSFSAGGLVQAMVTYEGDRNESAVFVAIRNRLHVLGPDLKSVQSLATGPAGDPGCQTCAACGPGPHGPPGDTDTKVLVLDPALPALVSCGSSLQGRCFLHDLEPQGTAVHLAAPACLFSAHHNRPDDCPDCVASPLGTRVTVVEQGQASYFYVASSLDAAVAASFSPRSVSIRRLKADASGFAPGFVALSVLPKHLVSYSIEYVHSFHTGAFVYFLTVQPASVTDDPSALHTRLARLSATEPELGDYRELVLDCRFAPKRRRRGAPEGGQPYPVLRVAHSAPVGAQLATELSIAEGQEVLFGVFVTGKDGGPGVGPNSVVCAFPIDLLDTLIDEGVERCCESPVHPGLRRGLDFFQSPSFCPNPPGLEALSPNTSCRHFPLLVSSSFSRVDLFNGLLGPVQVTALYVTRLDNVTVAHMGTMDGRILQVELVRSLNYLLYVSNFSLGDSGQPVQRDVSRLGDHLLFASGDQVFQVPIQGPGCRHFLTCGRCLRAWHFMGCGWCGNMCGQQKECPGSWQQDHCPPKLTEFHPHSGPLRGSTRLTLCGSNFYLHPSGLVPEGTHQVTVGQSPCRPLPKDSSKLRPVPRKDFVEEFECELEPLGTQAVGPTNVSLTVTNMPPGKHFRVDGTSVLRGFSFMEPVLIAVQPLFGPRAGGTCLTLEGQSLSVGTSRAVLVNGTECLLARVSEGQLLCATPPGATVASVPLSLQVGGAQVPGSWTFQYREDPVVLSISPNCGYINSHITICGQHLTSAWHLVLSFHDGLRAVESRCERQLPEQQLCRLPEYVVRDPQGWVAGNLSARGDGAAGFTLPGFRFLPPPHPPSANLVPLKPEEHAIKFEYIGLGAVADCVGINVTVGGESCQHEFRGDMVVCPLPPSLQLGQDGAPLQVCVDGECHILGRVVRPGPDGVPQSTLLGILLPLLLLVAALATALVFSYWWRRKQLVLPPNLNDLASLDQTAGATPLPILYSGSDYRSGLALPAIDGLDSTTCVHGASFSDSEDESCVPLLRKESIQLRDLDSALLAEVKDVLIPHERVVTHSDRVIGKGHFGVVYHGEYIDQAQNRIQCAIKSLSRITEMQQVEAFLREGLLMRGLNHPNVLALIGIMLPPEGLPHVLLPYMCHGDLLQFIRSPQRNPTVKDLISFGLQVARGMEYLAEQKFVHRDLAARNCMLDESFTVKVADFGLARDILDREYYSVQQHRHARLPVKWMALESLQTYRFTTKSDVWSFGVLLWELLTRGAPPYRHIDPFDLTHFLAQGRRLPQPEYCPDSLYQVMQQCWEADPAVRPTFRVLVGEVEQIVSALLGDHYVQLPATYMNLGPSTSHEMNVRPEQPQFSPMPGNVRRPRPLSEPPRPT

Row | IC50 (RON) [nM] | IC50 (cMET) [nM] | Compound
1 | < 50 | 500 to 5000 | CC(C)n1c(=O)[nH]c2nccc(Oc3ccc(NC(=O)c4cnn(-c5c(F)cccc5F)c4C(F)(F)F)cc3F)c21 [Example 36, 1-(2,6-difluorophenyl)-N-(3-fluoro-4-((1-isopropyl-2-oxo-2,3-dihydro-1H-imidazo[4,5-b]pyridine-7-yl)oxy)phenyl)-5-(trifluoromethyl)-1H-pyrazole-4-carboxamide]
2 | 50 to 500 | 500 to 5000 | O=C(Nc1ccc(Oc2ccnc3[nH]c(=O)n(C4CCOCC4)c23)c(F)c1)c1cnn(-c2ccccc2)c1C(F)(F)F [Example 37, N-(3-fluoro-4-((2-oxo-1-(tetrahydro-2H-pyran-4-yl)-2,3-dihydro-1H-imidazo[4,5-b]pyridine-7-yl)oxy)phenyl)-1-phenyl-5-(trifluoromethyl)-1H-pyrazole-4-carboxamide]
3 | < 50 | 500 to 5000 | O=C(Nc1ccc(Oc2ccnc3[nH]c(=O)n(C4CCOC4)c23)c(F)c1)c1cnn(-c2ccccc2)c1C(F)(F)F (centres unmarked) [Example 38, N-(3-fluoro-4-((2-oxo-1-(tetrahydrofuran-3-yl)-2,3-dihydro-1H-imidazo[4,5-b]pyridine-7-yl)oxy)phenyl)-1-phenyl-5-(trifluoromethyl)-1H-pyrazole-4-carboxamide]
4 | < 50 | > 5000 | CN1CCC(n2c(=O)[nH]c3nccc(Oc4ccc(NC(=O)c5cnn(-c6ccccc6)c5C(F)(F)F)cc4F)c32)CC1 [Example 39, N-(3-fluoro-4-((1-(1-methylpiperidine-4-yl)-2-oxo-2,3-dihydro-1H-imidazo[4,5-b]pyridine-7-yl)oxy)phenyl)-1-phenyl-5-(trifluoromethyl)-1H-pyrazole-4-carboxamide]
5 | 500 to 5000 | 500 to 5000 | CC(C)n1c(=O)[nH]c2nccc(Oc3ccc(NC(=O)c4ccn(-c5ccccc5)n4)cc3F)c21 [Example 40, N-(3-fluoro-4-((1-isopropyl-2-oxo-2,3-dihydro-1H-imidazo[4,5-b]pyridine-7-yl)oxy)phenyl)-1-phenyl-1H-pyrazole-3-carboxamide]
6 | 500 to 5000 | > 5000 | CC(C)n1c(=O)[nH]c2nccc(Oc3ccc(NC(=O)c4cn(-c5ccccc5)nn4)cc3F)c21 [Example 41, N-(3-fluoro-4-((1-isopropyl-2-oxo-2,3-dihydro-1H-imidazo[4,5-b]pyridine-7-yl)oxy)phenyl)-1-phenyl-1H-1,2,3-triazole-4-carboxamide]
7 | 50 to 500 | > 5000 | Cc1c(C(=O)Nc2ccc(Oc3ccnc4[nH]c(=O)n(C(C)C)c34)c(F)c2)nnn1-c1ccccc1 [Example 42, N-(3-fluoro-4-((1-isopropyl-2-oxo-2,3-dihydro-1H-imidazo[4,5-b]pyridine-7-yl)oxy)phenyl)-5-methyl-1-phenyl-1H-1,2,3-triazole-4-carboxamide]
